Here are results for 16 compounds from ChEMBL document CHEMBL1130636, “PDE4 inhibitors: new xanthine analogues” (Bioorg Med Chem Lett, 1998).

For assay [1], the target named is T1, Phosphodiesterase 4 (Homo sapiens, UniProt P27815+Q08499+Q07343+Q08493). As to the kind of experiment: Inhibition of PDE4. Format: protein assay.
Assay [2] has as its target T1, Phosphodiesterase 4. In words: Inhibition of rolipram binding to PDE4. Type of assay: protein assay.
The target in assay [3] is T1, Phosphodiesterase 4. In words: Relative inhibition of PDE4 activity and rolipram binding to PDE4. Type of assay: protein assay.
Assay [4] addresses T1, Phosphodiesterase 4. As to the kind of experiment: Inhibition of rolipram binding. Format: protein assay.
The subject of assay [5] is Mustela putorius furo. In words: Emetic effect in ferrets on oral administration at 10 mg/kg (No effect). Type of assay: functional, organism-based. On the set-up: dose 10 mg/kg.
Assay [6] relates to Cavia porcellus. In words: Inhibition of eosinophil recruitment in guinea pig lung asthma model at 10 mg/kg oral dose. Format: functional.
In assay [7] the test system is Cavia porcellus. In words: Inhibition of eosinophil recruitment in guinea pig lung asthma model at 30 mg/kg oral dose. Format: functional.
For assay [8], the system named is Cavia porcellus. As to the kind of experiment: Inhibition of eosinophil recruitment in guinea pig lung asthma model at 10 mg/kg. Format: functional.

Active and inactive are the calls of the source. The rule behind the calls is not given here. Where only a bound is given, the exact number is not on record here.

Turning to `O=c1c2[nH]cnc2n(-c2cccc(Cl)c2)c(=O)n1Cc1ccccc1`, the values for the half-inhibitory concentration (IC50) in assay [1] and in assay [2] were 6.55 µM and 0.042 µM, respectively. The Ratio in assay [3] stood at 156.
Compound `CC(C)(C)c1ccccc1-n1c(=O)n(Cc2ccccc2)c(=O)c2[nH]cnc21` gave a half-maximal inhibitory concentration (IC50) in assay [1] above 20 µM.
The same measure, in the same setting: the figure for `O=c1c2[nH]cnc2n(-c2ccccc2C(F)(F)F)c(=O)n1Cc1ccccc1` is 20 µM.
As to `COc1cccc(-n2c(=O)n(Cc3ccccc3)c(=O)c3[nH]cnc32)c1`, the results for the 50% inhibitory concentration (IC50) in assay [1] and in assay [4] were 6.01 µM and 0.017 µM, respectively. Further, in assay [3], the Ratio is 353.
Turning to `Nc1cccc(-n2c(=O)n(Cc3ccccc3)c(=O)c3[nH]cnc32)c1`, the 50% inhibitory concentration (IC50) in assay [1] amounted to 11 µM; in assay [4], 0.32 µM. Moreover, the Ratio in assay [3] was determined as 34.
With `O=c1c2[nH]cnc2n(-c2ccccc2F)c(=O)n1Cc1ccccc1`, the IC50 in assay [1] came to 2.4 µM; in assay [4] it was 0.22 µM. In addition, in assay [3], the Ratio is 10.9.
Regarding `C[S+]([O-])c1cccc(-n2c(=O)n(Cc3ccccc3)c(=O)c3[nH]cnc32)c1` (centres undefined), the values for the IC50 in assay [1] and in assay [4] were 56 µM and 1.6 µM, respectively. For the same compound, the Ratio in assay [3] amounted to 35.
`C[S+]([O-])c1ccccc1-n1c(=O)n(Cc2ccccc2)c(=O)c2[nH]cnc21` (centres undefined): the IC50 in assay [1] is 100 µM.
In the case of `Cc1ccccc1-n1c(=O)n(Cc2ccccc2)c(=O)c2[nH]cnc21`, the values for the IC50 in assay [1] and in assay [4] were 7.97 µM and 0.67 µM, respectively. Besides, in assay [3], the Ratio worked out at 11.9.
On to `Cc1ccccc1-n1c(=O)n(Cc2cccs2)c(=O)c2[nH]cnc21`, for which, in assay [5], the result was inactive. Further, in assay [6], the inhibition in vivo at 10 mg/kg was found to be 56%. The compound also gave an inhibition in vivo at 30 mg/kg in assay [7] of 70%. In addition, the IC50 in assay [1] is 4.2 µM; in assay [4] it was 1.02 µM. Also, the Ratio in assay [3] turned out to be 4.1.
Regarding `CSc1ccccc1-n1c(=O)n(Cc2ccccc2)c(=O)c2[nH]cnc21`, in assay [1], the IC50 amounted to 20 µM.
`O=C(O)c1cccc(-n2c(=O)n(Cc3ccccc3)c(=O)c3[nH]cnc32)c1` gave an IC50 in assay [1] of 110 µM.
Consider `Cc1ccccc1-n1c(=O)n(Cc2ccco2)c(=O)c2[nH]cnc21`, for which the IC50 worked out at 11.95 µM in assay [1] and 1.1 µM in assay [4]. In assay [3], the Ratio was found to be 10.9.
For the compound `O=c1c2[nH]cnc2n(-c2ccccc2)c(=O)n1Cc1ccccc1`, the results for the IC50 in assay [1] and in assay [4] were 4.8 µM and 0.08 µM, respectively. Also, the Ratio in assay [3] was 60.
For the compound `COC(=O)c1cccc(-n2c(=O)n(Cc3ccccc3)c(=O)c3[nH]cnc32)c1`, the IC50 stood at 4.08 µM in assay [1] and 0.009 µM in assay [4]. In addition, the Ratio in assay [3] turned out to be 453.
Take `COc1ccc(C2CNC(=O)C2)cc1OC1CCCC1` (centres undefined) [ROLIPRAM]: the inhibition in vivo at 10 mg/kg in assay [8] was 48%.

What is called IC50 is the concentration that gives 50% inhibition. A high value points to lower potency. Broadly, the inhibition in vivo is the share of the control response that was lost under treatment. A higher inhibition in vivo goes with strong suppression.
